{
  "source": "patent US7795315B2",
  "about": "“N-(2-amino-phenyl)-amide derivatives” (Hoffman-La Roche Inc., priority 2008, dated 2010)",
  "type_in_all_cases": "cell-based",
  "key": {"[1]": {"system": "p21 promoter-luciferase construct in HeLa cells", "test": "p21 reporter gene induction", "details": "3 micromolar, 15 hours, relative to SNDX-275", "procedure": "(§1) The novel compounds of the present invention were tested for their ability to induce p21 gene expression using a reporter gene assay involving HeLa cells transfected with a p21 promoter-luciferase construct. The p21 promoter contained the Sp1/Sp3 binding site for HDAC but not the upstream p53 binding site. Briefly, the day before transfection, HeLa cells were seeded at 11,000 cells/well in a 96-well culture plate and incubated at 37 degrees Celsius in 5% CO2 overnight. For transfection, the medium was removed and replaced with 100 microliters/well transfection media previously prepared as follows: 5 microliters serum-free DMEM, 0.15 microliters Fugene 6 reagent, 40 ng p21-luc, 10 ng GFP were mixed gently and incubated at room temperature for 30 minutes; then 98 microliters DMEM (with 10% FBS, 1% penicillin and streptomycin) was added to the DNA:Fugene 6 reagent complex and mixed gently. After incubating the cells for 24 hours at 37 degrees Celsius in 5% CO2, fresh media and test compounds were added to the wells and the cells further incubated for 15 hours at 37 degrees Celsius in 5% CO2. Cells were lysed by adding 80 microliters/well of a cell culture lysis reagent (Promega). 50 microliters of each lysate was taken for GFP detection using an excitation wavelength of 486 nm and detection at 527 nm. 100 microliters Luciferase assay reagent (Promega) was then added to every 20 microliters cell lysate for luminometer detection. […] Induction activity for specific representative compounds can be found in Table 4."}, "[2]": {"system": "klf2 promoter-luciferase construct in A204 cells", "test": "klf2 reporter gene induction (p21 versus klf2 selectivity)", "details": "SNDX-275 p21/klf2 ratio defined as 1.0; for p21/klf2 (RP3): relative selectivity compared with SNDX-275: 3 micromolar; for p21/klf2 (RP10): relative selectivity compared with SNDX-275: 10 micromolar", "procedure": "as §1\nThe novel compounds of the present invention were tested for their ability to induce klf2 gene expression using a reporter gene assay involving A204 cells transfected with a klf2 promoter-luciferase construct. The klf2 promoter contained the MEF2 binding site for HDAC3/class IIa HDAC complex. Briefly, the day before transfection, A204 cells were seeded at 11,000 cells/well in a 96-well culture plate and incubated at 37 degrees Celsius in 5% CO2 overnight. For transfection, the medium was removed and replaced with 100 microliters/well transfection media previously prepared as follows: 5 microliters serum-free DMEM, 0.15 microliters Fugene 6 reagent, 40 ng klf2-luc, 10 ng GFP were mixed gently and incubated at room temperature for 30 minutes; then 98 microliters DMEM (with 10% FBS, 1% penicillin and streptomycin) was added to the DNA:Fugene 6 reagent complex and mixed gently. After incubating the cells for 24 hours at 37 degrees Celsius in 5% CO2, fresh media and test compounds were added to the wells and the cells further incubated for 15 hours at 37 degrees Celsius in 5% CO2. Finally, 10 ng/ml TNF-α was added and the cells further incubated for 4 hours. Cells were lysed by adding 80 microliters/well of a cell culture lysis reagent (Promega). 50 microliters of each lysate was taken for GFP detection using an excitation wavelength of 486 nm and detection at 527 nm. 100 microliters Luciferase assay reagent (Promega) was then added to every 20 microliters cell lysate for luminometer detection."}, "[3]": {"system": "HCT-116 colon cancer cells", "test": "Antiproliferative activity, growth inhibition (MTS/WST assay)", "details": "Homo sapiens, 72 hour growth inhibition, read-out: GI50 HCT116", "procedure": "The novel compounds of the present invention were tested for their ability to inhibit growth of various cancer cell lines (HeLa, MCF7, U2OS, HepG2, HL60, HCT-116) using in vitro growth inhibition assays described below.\nCells were seeded in 96-well culture plates (200 microliters/well at different seeding concentrations depending on cell type) and incubated overnight at 37 degrees Celsius in 5% CO2. After adding compound dilutions to the cells (DMSO concentration kept below 0.5%), the cells were incubated at 37 degrees Celsius in 5% CO2 for 72 hours. The effects on proliferation were determined by addition of MTS reagent (Promega) according to the manufacturer's instruction, followed by incubation for 2 hours at 37 degrees Celsius in 5% CO2, and finally recording the absorbance at 490 nm using an ELISA plate reader.\nSimilar to MTS assay except that the developer is the CCK-8 reagent (Dojindo) and the plate reader is set to 450 nm absorbance.\nGI50 values against HCT-116 colon cancer cells for specific representative compounds can be found in Table 4."}},
  "data": [
    {"smiles": "Nc1ccccc1NC(=O)/C=C/c1ccc(C(NCCN2CCOCC2)C(=O)Nc2ccc(C(F)(F)F)cc2)cc1", "note": "(stereo not drawn) [Example 30, (E)-N-(2-Amino-phenyl)-3-{4-[(2-morpholin-4-yl-ethylamino)-(4-trifluoromethyl-phenylcarbamoyl)-methyl]-phenyl}-acrylamide]", "values": [
      {"measurement": "p21 (RP3): relative induction potency compared with SNDX-275", "setting": "[1]", "result": 100, "unit": "%"},
      {"measurement": "p21/klf2 (RP3): relative selectivity compared with SNDX-275", "setting": "[2]", "result": 1.3},
      {"measurement": "p21/klf2 (RP10): relative selectivity compared with SNDX-275", "setting": "[2]", "result": 3.9},
      {"measurement": "GI50", "setting": "[3]", "result": 800, "unit": "nM"}
    ]},
    {"smiles": "Nc1ccccc1NC(=O)/C=C/c1ccc(C(NCCN2C[C@@H]3C[C@H]2CO3)C(=O)Nc2ccc(C(F)(F)F)cc2)cc1", "note": "(stereo partly drawn) [Example 4-12, (E)-N-(2-Amino-phenyl)-3-{4-[[(1S,4S)-2-(2-oxa-5-aza-bicyclo[2.2.1]hept-5-yl)-ethylamino]-(4-trifluoromethyl-phenylcarbamoyl)-methyl]-phenyl}-acrylamide]", "values": [
      {"measurement": "p21 (RP3): relative induction potency compared with SNDX-275", "setting": "[1]", "result": 167, "unit": "%"},
      {"measurement": "p21/klf2 (RP3): relative selectivity compared with SNDX-275", "setting": "[2]", "result": 10.6},
      {"measurement": "p21/klf2 (RP10): relative selectivity compared with SNDX-275", "setting": "[2]", "result": 0.8},
      {"measurement": "GI50", "setting": "[3]", "result": 400, "unit": "nM"}
    ]},
    {"smiles": "Nc1ccccc1NC(=O)/C=C/c1ccc(C(NCCN2CCCCC2)C(=O)Nc2ccc(C(F)(F)F)cc2)cc1", "note": "(stereo not drawn) [Example 4-2, (E)-N-(2-Amino-phenyl)-3-{4-[(2-piperidin-1-yl-ethylamino)-(4-trifluoromethyl-phenylcarbamoyl)-methyl]-phenyl}-acrylamide]", "values": [
      {"measurement": "p21 (RP3): relative induction potency compared with SNDX-275", "setting": "[1]", "result": 324, "unit": "%"},
      {"measurement": "p21/klf2 (RP3): relative selectivity compared with SNDX-275", "setting": "[2]", "result": 2.2},
      {"measurement": "p21/klf2 (RP10): relative selectivity compared with SNDX-275", "setting": "[2]", "result": 3.6},
      {"measurement": "GI50", "setting": "[3]", "result": 700, "unit": "nM"}
    ]},
    {"smiles": "CNC(C(=O)Nc1ccc(C(F)(F)F)cc1)c1ccc(/C=C/C(=O)Nc2ccccc2N)cc1", "note": "(stereo not drawn) [Example 9-17, (E)-N-(2-Amino-phenyl)-3-{4-[methylamino-(4-trifluoromethyl-phenylcarbamoyl)-methyl]-phenyl}-acrylamide]", "values": [
      {"measurement": "p21 (RP3): relative induction potency compared with SNDX-275", "setting": "[1]", "result": 84, "unit": "%"},
      {"measurement": "p21/klf2 (RP3): relative selectivity compared with SNDX-275", "setting": "[2]", "result": 1.3},
      {"measurement": "p21/klf2 (RP10): relative selectivity compared with SNDX-275", "setting": "[2]", "result": 1.9},
      {"measurement": "GI50", "setting": "[3]", "result": 1900, "unit": "nM"}
    ]},
    {"smiles": "CC(C)c1ccc(NC(=O)C(NCCN2CCOCC2)c2ccc(/C=C/C(=O)Nc3ccccc3N)cc2)cc1", "note": "(stereo not drawn) [Example 4-37, (E)-N-(2-Amino-phenyl)-3-{4-[(4-isopropyl-phenylcarbamoyl)-(2-morpholin-4-yl-ethylamino)-methyl]-phenyl}-acrylamide]", "values": [
      {"measurement": "p21 (RP3): relative induction potency compared with SNDX-275", "setting": "[1]", "result": 60, "unit": "%"},
      {"measurement": "p21/klf2 (RP3): relative selectivity compared with SNDX-275", "setting": "[2]", "result": 1.1},
      {"measurement": "p21/klf2 (RP10): relative selectivity compared with SNDX-275", "setting": "[2]", "result": 1.7},
      {"measurement": "GI50", "setting": "[3]", "result": 1000, "unit": "nM"}
    ]},
    {"smiles": "Nc1ccccc1NC(=O)/C=C/c1ccc(C(NCCN2CCOCC2)C(=O)Nc2ccc(C(F)(F)F)c(Cl)c2)cc1", "note": "(stereo not drawn) [Example 4-29, (E)-N-(2-Amino-phenyl)-3-{4-[(3-chloro-4-trifluoromethyl-phenylcarbamoyl)-(2-morpholin-4-yl-ethylamino)-methyl]-phenyl}-acrylamide]", "values": [
      {"measurement": "p21 (RP3): relative induction potency compared with SNDX-275", "setting": "[1]", "result": 48, "unit": "%"},
      {"measurement": "p21/klf2 (RP3): relative selectivity compared with SNDX-275", "setting": "[2]", "result": 0.6},
      {"measurement": "p21/klf2 (RP10): relative selectivity compared with SNDX-275", "setting": "[2]", "result": 2.3},
      {"measurement": "GI50", "setting": "[3]", "result": 2100, "unit": "nM"}
    ]}
  ]
}
